Six substances from US20250207131A1, “MODIFIED RNA AGENTS WITH REDUCED OFF-TARGET EFFECT” (Alnylam Pharmaceuticals, Inc., priority 2018, published 2025) can be followed below.

The test system of experiment [1] is TTR. Description: In vitro on-target activity, primary mouse hepatocytes, transfection, RT-qPCR (TTR siRNAs). Conditions: for On-target TX: 10 nM, log2 transformed, relative to the parent. It is filed as cell-based. How it is done:
Cell culture and transfections: Primary Mouse Hepatocytes (Thermo Fisher Scientific/Gibco) were transfected by adding 4.9 μL of Opti-MEM plus 0.1 μL of Lipofectamine RNAiMax per well (Invitrogen, cat #13778-150) to 5 μL of siRNA duplexes per well into a 384-well plate and incubated at room temperature for 15 minutes. 40 μL of Dulbecco's Modified Eagle Medium (Hep3b) or William's Medium (PMH) containing ˜5 ×10^3 cells were then added to the siRNA mixture. Cells were incubated for 24 hours at 37° C. and then processed for RNA purification. Experiments were performed at 10 nM and 0.1 nM doses of siRNA.
Total RNA isolation using DYNABEADS mRNA Isolation Kit: RNA was isolated using an automated protocol on a BioTek-EL406 platform using DYNABEADs (Invitrogen, cat #61012). Briefly, 70 μL of Lysis/Binding Buffer and 10 μL of lysis buffer containing 3 μL of magnetic beads were added to each well. Plates were incubated on an electromagnetic shaker for 10 minutes at room temperature and then magnetic beads were captured and the supernatant was removed. Bead-bound RNA was then washed 2 times with 150 μL Wash Buffer A and once with Wash Buffer B. Beads were then washed with 150 μL Elution Buffer, re-captured and supernatant removed.
cDNA synthesis using ABI High capacity cDNA reverse transcription kit (Applied Biosystems, cat #4368813): 12 μL of a master mix containing 1.2 μL 10× Buffer, 0.48 μL 25× dNTPs, 1.2 μL 10× Random primers, 0.6 μL Reverse Transcriptase, 0.6 μL RNase inhibitor and 7.92 μL of H2O per reaction was added to RNA isolated above. Plates were sealed, mixed, and incubated on an electromagnetic shaker for 10 minutes at room temperature, followed by 2 h 37° C.
Real time PCR: 2 μL of cDNA were added to a master mix containing 2 μL water, 0.5 μL of either an appropriate GAPDH TaqMan VIC Probe or the target probe and 5 μL Lightcycler 480 probe master mix (Roche, cat #04887301001) per well in a 384 well plate (Roche, cat #04887301001). Real time PCR was done in a LightCycler480 Real Time PCR system (Roche). Each duplex was tested in quadruplicate and data were normalized to cells transfected with a non-targeting control siRNA. To calculate relative fold change, real time data were analyzed using the ΔΔCt method and normalized to assays performed with cells transfected with a non-targeting control siRNA.
RT qPCR for Ttr mRNA quantification:_Primary mouse hepatocytes (PMH) were cultured in Williams E Medium with 10% fetal bovine serum. Transfection of cells using RNAiMAX reagent was done as per the manufacturer's recommended protocol. Thus, cells were thawed immediately prior to transfection and then plated onto 384-well plates with a seed density of ˜5000 cells/well. Pre-incubated lipid/siRNA complex (0.1 μL RNAiMax, siRNA, in 5 μL Opti-MEM for 15 min) was added to a 384-well collagen-coated plate (BioCoat; Corning) and cells were incubated for 20 h at 37° C. in an atmosphere of 5% CO2. Eight 6-fold serial dilutions ranging from 10 to 0.036 nM were used to perform dose response experiments. Media was removed before washing and lysing the cells. Using Dynabeads mRNA isolation kit according to manufacturer's protocol, RNA was extracted and subsequently reverse-transcribed with the ABI high capacity cDNA reverse transcription kit. Quantification was done by real-time PCR, whereby the cDNA (2 μL) was added to a master mix that contained 0.5 μL mouse Gapdh TaqMan Probe, 0.5 μL Ttr TaqMan probes, and 5 μL Lightcycler 480 probe master mix per well in a 384-well 50 plate. Real-time PCR was accomplished in an ABI 7900HT RT-PCR system using the ΔΔCt (RQ) assay. Each duplex and concentration was tested in four biological replicates. To calculate relative fold change, real time data were analyzed using the ΔΔCt method and normalized to assays performed with cells transfected with 10 nM nonspecific siRNA. IC50 values were calculated using a 4-parameter fit model using XLFit.

For experiment [2], the system named is TTR. Description: Mouse pharmacodynamic study, circulating TTR protein. The experiment is classed as in vivo. Conditions: mice, single dose 1 mg/kg, circulation, Day 7. Also on record: key: fraction of vehicle-control group mean serum TTR protein. How it is done:
In mouse pharmacodynamic studies, female C57BL/6 mice (Charles River Laboratories) were administered a single dose of a vehicle control (1×PBS or 0.9% sodium chloride) or siRNA subcutaneously in the upper back. Bleeds were collected by retro-orbital bleeding. Serum were separated by centrifuging at 13000 rpm at room temperature for 10 mins. Mouse livers were collected and immediately snap frozen in liquid nitrogen, and stored at −80° C. for mRNA and siRNA analysis.
Mouse TTR Serum Protein Methods:_TTR serum protein was quantified using a commercially available enzyme-linked immunosorbent assay, 41-ALBMS-E01 (ALPCO, Salem, NH), according to manufacturer's instructions. Briefly, serum samples were diluted 4000 fold in 1× ALPCO Kit Dilution Buffer. An 8-point mouse TTR standard curve was generated using 2.5× serial dilutions, ranging from 0 to 1000 ng/mL. Standards and samples (100 uL) were added to the plate and allowed to incubate for 30 minutes at room temperature. […] After a wash in ALPCO Kit 1× Wash Buffer, plates were incubated for 10 minutes at room temperature in the dark with 3,3′,5,5′-tetramethybenzidine (TMB) and hydrogen peroxide in citric acid buffer at pH 3.3. Reactions were quenched with 100 μL of […] sulfuric acid per well. Absorbance at […] was read on a SpectraMax plate reader, and data were fit to a 4-parameter curve (y=(A−D)/(1+(x/C)^B)+D) as calculated in Softmax Pro Software to determine serum TTR protein levels expressed in ug/mL. Protein levels at each time point were normalized to the respective group average of vehicle control serum protein values.

Setting [3] is: TTR-3, antisense strand modified at position 5, primary mouse hepatocytes.
The mark [4] stands for this setting: TTR-3, antisense strand modified at position 7, primary mouse hepatocytes.
Setting [5] is: TTR-4, modification at antisense position 7, primary mouse hepatocytes.
The mark [6] stands for this setting: antisense Position 5, Seq 3 (TTR).
[7] abbreviates: antisense Position 7, Seq 3 (TTR).
The mark [8] stands for this setting: antisense Position 7, Seq 4 (TTR).

One may read the IC50 as the point on the concentration scale where inhibition reaches its midpoint.

Regarding 5′-(R)-Me-UNA [Mod 5 (R)], the IC50 is 0.00147 nM in the experiment with TTR [1] (setting [3]), 0.0138 nM in the experiment with TTR [1] (setting [4]) and 0.0898 nM in the experiment on TTR [1] (setting [5]). The “On-target TX” value was 0.45 with TTR [1] (setting [6]), 0.50 in the experiment with TTR [1] (setting [7]) and −1.26 with TTR [1] (setting [8]). Moreover, the “On-target, level of protein remaining with respect to PBS control” value (shortened to “On-target, level of protein remaining”) in the experiment with TTR [2] (setting [7]) is 0.17; in the experiment with TTR [2] (setting [8]) it was 0.16.
In the case of 2′-(S)-Me-UNA [Mod 7 (S)], the 50% inhibitory concentration (IC50) in the experiment with TTR [1] (setting [3]) is 0.00254 nM; with TTR [1] (setting [4]), 0.0235 nM; in the experiment on TTR [1] (setting [5]), 0.0486 nM. Also, the “On-target TX” value in the experiment on TTR [1] (setting [6]) is 0.43; in the experiment with TTR [1] (setting [7]), 0.72; in the experiment on TTR [1] (setting [8]) it was −0.79. Besides, the “On-target, level of protein remaining” value with TTR [2] (setting [7]) was found to be 0.15; with TTR [2] (setting [8]), 0.20.
In the case of 5′-(S)-Me-UNA [Mod 5 (S)], the figures for the IC50 in the experiment with TTR [1] (setting [3]), in the experiment with TTR [1] (setting [4]) and in the experiment with TTR [1] (setting [5]) were 0.0011 nM, 0.015 nM and 0.0421 nM, respectively. In addition, the “On-target TX” value with TTR [1] (setting [6]) is −0.03; with TTR [1] (setting [7]) it was −0.04; in the experiment on TTR [1] (setting [8]) it was −0.97. Also, the “On-target, level of protein remaining” value in the experiment on TTR [2] (setting [7]) is 0.17; in the experiment on TTR [2] (setting [8]), 0.16.
Turning to 3′-(S)-Me-UNA [Mod 6 (S)], the IC50 is 0.00316 nM in the experiment with TTR [1] (setting [3]), 0.0322 nM with TTR [1] (setting [4]) and 0.0239 nM in the experiment on TTR [1] (setting [5]). For the same substance, the “On-target TX” value is 0.18 with TTR [1] (setting [6]), 0.06 with TTR [1] (setting [7]) and −0.31 in the experiment with TTR [1] (setting [8]). Also, the “On-target, level of protein remaining” value in the experiment with TTR [2] (setting [7]) came out at 0.20; with TTR [2] (setting [8]) it was 0.23.
For 2′-(R)-Me-UNA [Mod 7 (R)], the IC50 is 0.0186 nM with TTR [1] (setting [4]) and 0.0277 nM in the experiment on TTR [1] (setting [5]). The “On-target TX” value in the experiment on TTR [1] (setting [6]) was 0.50; in the experiment with TTR [1] (setting [7]), 0.15; in the experiment on TTR [1] (setting [8]), −0.99. Moreover, the “On-target, level of protein remaining” value in the experiment with TTR [2] (setting [7]) came to 0.18; in the experiment with TTR [2] (setting [8]) it was 0.14.
Take 3′-(R)-Me-UNA [Mod 6 (R)]: the IC50 in the experiment on TTR [1] (setting [3]) amounted to 0.00157 nM; with TTR [1] (setting [4]), 0.0348 nM; with TTR [1] (setting [5]), 0.0358 nM. The “On-target TX” value is listed as −0.28 in the experiment with TTR [1] (setting [6]), 0.67 in the experiment with TTR [1] (setting [7]) and −0.98 in the experiment on TTR [1] (setting [8]). The “On-target, level of protein remaining” value in the experiment with TTR [2] (setting [7]) was 0.20; in the experiment with TTR [2] (setting [8]), 0.29.
